The values below come from paper PMC8298375 (Naunyn-Schmiedeberg's Archives of Pharmacology, 2021).

Structures can show the parent of a compound that is named as a salt.

The test system of one series is cholinesterase enzyme. The arrangement: method as in Emerich and Walsh [1990]. Particulars: 2.5 mg/kg via the oral route; ref Emerich and Walsh [1990]; cited from earlier work.
On the set-up of series [1]: method as in Jann [2000]. The note with it: ref Jann [2000]; cited from earlier work.
Details of series [2]: method as in Jann [2000]. Particulars: ref Jann [2000], cited from earlier work.
For a further series, the system named is AChE. The format is in vivo, rat. The note with it: scopolamine model, listed as pure drug. The procedure: Samples were then centrifuged at 10,000 rpm for 5 min, and plasma was stored at − 70 °C until analysis.
Thiocholine, which was produced due to the hydrolysis of acetylthiocholine (ACTI) by AChE, was estimated by making it react with 5, 5′-dithiobis-(2-nitrobenzoic acid) (DTNB). The chemical, 5-thio-2-nitrobenzoic acid (yellow color complex), which was released due to reaction was estimated using a UV spectrophotometer in the range of 400 to 420 nm with maximal absorption at 412 nm. One hundred microliter of blank rat plasma was taken in the polypropylene vials. To this, 2.8 mL of phosphate buffer (0.01 M, pH 8) and 100 µL of DTNB reagents were added and mixed well. Then, 20 µL of ACTI (26.01 mg/mL of Milli-Q water) was added to the contents of the cuvette to initiate the enzyme reaction. The reaction kinetics was monitored at different time intervals (0, 1, 2, 3, 4 min), and absorbance was noted. 2.8 mL buffer (0.01 M, pH 8.0) and 100 µL DTNB reagent served as blank. Concentrations in the range of 0.03–30 mM were prepared using methanol as a diluent. […] Substrate concentration and reaction time were optimized such that sufficient concentration of ACTI is available to bind with the enzyme to initiate the reaction and also it should not saturate the enzyme. In this study, varying concentrations (100–1000 µM) of ACTI were prepared, and reaction kinetics were observed. In general, the maximum time should be either 2–4 min or even less, because the enzyme might undergo degradation. In the present study, up to 4 min of reaction kinetics (changing the optical density or absorbance) was measured. One unit of AChE activity is defined as the number of µmol of acetylthiocholine iodide hydrolyzed per minute. The specific activity of AChE is expressed in moles/min/mg of protein (Kaur et al. [2015]): AChEActivity=(abs.permin×1000×volumeofenzyme)/(13600×TRM)AChEActivity=abovevalue×1000(nanomolar/min/mL)
where 13,600 = molar extinction coefficient of DTNB: 1000-molar conversion factor: (TRM) total reaction mixture 3 mL: volume of enzyme (0.1 mL).

A short description of series [3]: In vitro release studies, release kinetics and mechanism (dialysis sac). The format is physicochemical. The note with it: PBS pH 7.4, dialysis sac. The procedure:
In vitro release studies were performed using dialysis sac (Sigma membrane, MW cut-off 13 kDa) method. Two milligram equivalent of rivastigmine-loaded nanoparticles were weighed and suspended in 2 mL of phosphate buffer saline (pH 7.4). Samples were withdrawn at predetermined time intervals and analyzed by HPLC method. In order to maintain sink conditions, an equal volume of PBS was replaced. The whole experiment was performed at […]. Based on the cumulative drug release vs. time profiles, the release kinetics models and mechanism were proposed (Akbuǧa and Bergişadi [1997]).

On the set-up of series [4]: method as in Arumugam [2009]. Particulars: male vs female rats; ref Arumugam [2009]; cited from earlier work.

`CCN(C)C(=O)Oc1cccc([C@H](C)N(C)C)c1` [Rivastigmine, Rivastigmine hydrogen tartrate]: in the series with cholinesterase enzyme, the “inhibition of the cholinesterase enzyme in the cortex and hippocampus” value was 20–30%. Moreover, in series [1], the “log P predicted” value was 2.45. Also, the bioavailability in series [2] (oral) is listed as 36–40%. Also, the plasma elimination half-life in series [2] is 1.5 h. Besides, the “peak AChE inhibition (Emax, maximum inhibition) in plasma” value in the series with AChE stood at 71.95%. Moreover, the “drug released within 2 h” value in series [3] came to 85%. Besides, the “elimination rate constant, male rats versus female rats” value in series [4] is on record as 2.5 fold.
